According to patent publication US11753407B2, “Compounds for treating spinal muscular atrophy” (PTC Therapeutics, Inc., priority 2012, dated 2023):

How the values were obtained:
[1] = tested on: SMN2 minigene mRNA (SMN2-A minigene) in HEK293H cells; assay: SMN2 minigene mRNA splicing RT-qPCR assay in cultured cells; format: cell-based, human; conditions: Homo sapiens, HEK293-H; concentration increasing full length SMN2 mRNA 1.5-fold relative to vehicle-treated cells; HEK293H cells with SMN2-A minigene, 24 hours, 7-point concentration data; read-out: EC1.5x for production of full length SMN2 mRNA
In short: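 Stable SMN2-A minigene HEK293H; cpd 7-pt 3.16-fold series, 200× in DMSO, 24 h, 37 °C, n=2. Lysates → multiplex RT-qPCR (minigene FL + GAPDH), efficiency-corrected ΔΔCt vs vehicle. EC1.5× = 1.5-fold FL mRNA gain.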

[2] = tested on: Smn protein in SMA patient fibroblast cells (GM03813); assay: Smn protein assay in cultured cells (SMN HTRF); format: cell-based, human; conditions: SMA patient fibroblast cells, 48 hours; for maximum fold (Fold) increase of Smn protein: 7-point concentration data, fold relative to vehicle control; for EC1.5x for Smn protein expression: 7-point concentration curve, SMN HTRF, concentration producing 1.5 times Smn protein vs DMSO vehicle control
In short: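 Fibroblasts, SMA patient; 5,000 cells/well; 7-pt curve, 3.16-fold serial dilution; 48 h, 37 °C, 5% CO2; RIPA lysis 1 h RT; anti-SMN d2 + kryptate overnight RT; HTRF 665/620 nm; fold vs DMSO; EC1.5×, max fold.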

| SMILES | EC (1.5-fold increase) [1] [µM] | melting point [°C] | maximum fold (Fold) increase of Smn protein [2] | EC1.5x for Smn protein expression [2] |
| --- | --- | --- | --- | --- |
| CCc1cc(N2CCN3CCC[C@@H]3C2)cn2c(=O)cc(-c3ccc(OC)c(OC)c3)nc12 [Compound 455, 2-(3,4-dimethoxyphenyl)-9-ethyl-7-[(8aR)-hexahydropyrrolo[1,2-a]pyrazin-2(1H)-yl]-4H-pyrido[1,2-a]pyrimidin-4-one] | 0.1 to 0.3 | 180 to 184 | ** (a fold increase between >1.2 and ≤1.35 is indicated by two stars (**)) | – |
| COCCNC1CCN(c2cc(C)c3nc(-c4ccc(OC)c(OC)c4)cc(=O)n3c2)CC1 [Compound 456, 2-(3,4-dimethoxyphenyl)-7-{4-[(2-methoxyethyl)amino]piperidin-1-yl}-9-methyl-4H-pyrido[1,2-a]pyrimidin-4-one] | 0.1 to 0.3 | 178 to 182 | *** (a fold increase between >1.35 and ≤1.5 is indicated by three stars (***)) | – |
| Cc1cn2nc(-c3cc(=O)n4cc(N5CCN(C)CC5)cc(C)c4n3)cc2c(C)n1 [Compound 457, 2-(4,6-dimethylpyrazolo[1,5-a]pyrazin-2-yl)-9-methyl-7-(4-methylpiperazin-1-yl)-4H-pyrido[1,2-a]pyrimidin-4-one] | < 0.1 | 262 to 271 | ***** (a fold increase >1.65 is indicated by five stars (*****)) | **** (an EC1.5x≤0.3 μM is indicated by four stars (****)) |
| Cc1cn2nc(-c3cc(=O)n4cc(N5CCN6CCC[C@@H]6C5)cc(C)c4n3)cc2c(C)n1 [Compound 458, 2-(4,6-dimethylpyrazolo[1,5-a]pyrazin-2-yl)-7-[(8aR)-hexahydropyrrolo[1,2-a]pyrazin-2(1H)-yl]-9-methyl-4H-pyrido[1,2-a]pyrimidin-4-one] | < 0.1 | 244 to 256 | **** (a fold increase between >1.5 and ≤1.65 is indicated by four stars (****)) | *** (an EC1.5× between >0.3 μM and ≤1 μM is indicated by three stars (***)) |
| Cc1cn2nc(-c3cc(=O)n4cc(N5CCC(N(C)C)CC5)cc(C)c4n3)cc2c(C)n1 [Compound 459, 7-[4-(dimethylamino)piperidin-1-yl]-2-(4,6-dimethylpyrazolo[1,5-a]pyrazin-2-yl)-9-methyl-4H-pyrido[1,2-a]pyrimidin-4-one] | < 0.1 | 231 to 241 | *** (a fold increase between >1.35 and ≤1.5 is indicated by three stars (***)) | – |
| Cc1cn2cc(-c3ccc4nc(C5CCN(C)CC5)cc(=O)n4c3)ccc2n1 [Compound 460, 7-(2-methylimidazo[1,2-a]pyridin-6-yl)-2-(1-methylpiperidin-4-yl)-4H-pyrido[1,2-a]pyrimidin-4-one] | 0.1 to 0.3 | 227 to 230 | **** (a fold increase between >1.5 and ≤1.65 is indicated by four stars (****)) | *** (an EC1.5× between >0.3 μM and ≤1 μM is indicated by three stars (***)) |
| Cc1cn2cc(-c3ccc4nc(C5CCN(C(C)C)CC5)cc(=O)n4c3)ccc2n1 [Compound 461, 7-(2-methylimidazo[1,2-a]pyridin-6-yl)-2-[1-(propan-2-yl)piperidin-4-yl]-4H-pyrido[1,2-a]pyrimidin-4-one] | 0.3 to 1 | 215 to 218 | **** (a fold increase between >1.5 and ≤1.65 is indicated by four stars (****)) | ** (an EC1.5× between >1 μM and ≤3 μM is indicated by two stars (**)) |
| Cc1cn2cc(-c3ccc4nc(C5CCN(C)CC5)cc(=O)n4c3)cc(F)c2n1 [Compound 462, 7-(8-fluoro-2-methylimidazo[1,2-a]pyridin-6-yl)-2-(1-methylpiperidin-4-yl)-4H-pyrido[1,2-a]pyrimidin-4-one] | < 0.1 | 235 to 238 | ***** (a fold increase >1.65 is indicated by five stars (*****)) | **** (an EC1.5x≤0.3 μM is indicated by four stars (****)) |
| CCN1CC=C(c2ccc3nc(-c4ccc5c(cnn5C)c4)cc(=O)n3c2)CC1 [Compound 463, 7-(1-ethyl-1,2,3,6-tetrahydropyridin-4-yl)-2-(1-methyl-1H-indazol-5-yl)-4H-pyrido[1,2-a]pyrimidin-4-one] | < 0.1 | 172 to 174 | ***** (a fold increase >1.65 is indicated by five stars (*****)) | *** (an EC1.5× between >0.3 μM and ≤1 μM is indicated by three stars (***)) |
| CCCN1CC=C(c2ccc3nc(-c4ccc5c(cnn5C)c4)cc(=O)n3c2)CC1 [Compound 464, 2-(1-methyl-1H-indazol-5-yl)-7-(1-propyl-1,2,3,6-tetrahydropyridin-4-yl)-4H-pyrido[1,2-a]pyrimidin-4-one] | 0.1 to 0.3 | 152 to 154 | **** (a fold increase between >1.5 and ≤1.65 is indicated by four stars (****)) | ** (an EC1.5× between >1 μM and ≤3 μM is indicated by two stars (**)) |
| CN(C)c1ccc(-c2cc(=O)n3cc(C4CCNCC4)ccc3n2)cn1 [Compound 465, 2-[6-(dimethylamino)pyridin-3-yl]-7-(piperidin-4-yl)-4H-pyrido[1,2-a]pyrimidin-4-one] | 0.3 to 1 | 208 to 210 | *** (a fold increase between >1.35 and ≤1.5 is indicated by three stars (***)) | – |
| CCN1CCN(c2ccc3nc(-c4cc5cnc(C)cn5n4)cc(=O)n3c2)CC1 [Compound 466, 7-(4-ethylpiperazin-1-yl)-2-(6-methylpyrazolo[1,5-a]pyrazin-2-yl)-4H-pyrido[1,2-a]pyrimidin-4-one] | < 0.1 | 220 to 230 | ***** (a fold increase >1.65 is indicated by five stars (*****)) | *** (an EC1.5× between >0.3 μM and ≤1 μM is indicated by three stars (***)) |
| Cc1cn2nc(-c3cc(=O)n4cc(N5CCN6CCC[C@@H]6C5)ccc4n3)cc2cn1 [Compound 467, 7-[(8aR)-hexahydropyrrolo[1,2-a]pyrazin-2(1H)-yl]-2-(6-methylpyrazolo[1,5-a]pyrazin-2-yl)-4H-pyrido[1,2-a]pyrimidin-4-one] | < 0.1 | 240 to 250 | ***** (a fold increase >1.65 is indicated by five stars (*****)) | **** (an EC1.5x≤0.3 μM is indicated by four stars (****)) |
| Cc1cn2nc(-c3cc(=O)n4cc(N5CCC(N(C)C)CC5)ccc4n3)cc2cn1 [Compound 468, 7-[4-(dimethylamino)piperidin-1-yl]-2-(6-methylpyrazolo[1,5-a]pyrazin-2-yl)-4H-pyrido[1,2-a]pyrimidin-4-one] | < 0.1 | 240 to 242 | **** (a fold increase between >1.5 and ≤1.65 is indicated by four stars (****)) | *** (an EC1.5× between >0.3 μM and ≤1 μM is indicated by three stars (***)) |
| Cc1cn2nc(-c3cc(=O)n4cc(N5CCN(CCO)CC5)ccc4n3)cc2cn1 [Compound 469, 7-[4-(2-hydroxyethyl)piperazin-1-yl]-2-(6-methylpyrazolo[1,5-a]pyrazin-2-yl)-4H-pyrido[1,2-a]pyrimidin-4-one] | 0.1 to 0.3 | 254 to 256 | ***** (a fold increase >1.65 is indicated by five stars (*****)) | *** (an EC1.5× between >0.3 μM and ≤1 μM is indicated by three stars (***)) |
| CCCN1CCC(c2ccc3nc(-c4ccc5nc(C)cn5c4)cc(=O)n3c2)CC1 [Compound 470, 2-(2-methylimidazo[1,2-a]pyridin-6-yl)-7-(1-propylpiperidin-4-yl)-4H-pyrido[1,2-a]pyrimidin-4-one] | < 0.1 | 159 to 161 | **** (a fold increase between >1.5 and ≤1.65 is indicated by four stars (****)) | **** (an EC1.5x≤0.3 μM is indicated by four stars (****)) |
| Cc1cn2nc(-c3cc(=O)n4cc(N5CCN[C@H](C)C5)ccc4n3)cc2cn1 [Compound 472, 7-[(3R)-3-methylpiperazin-1-yl]-2-(6-methylpyrazolo[1,5-a]pyrazin-2-yl)-4H-pyrido[1,2-a]pyrimidin-4-one] | < 0.1 | 240 to 244 | ***** (a fold increase >1.65 is indicated by five stars (*****)) | **** (an EC1.5x≤0.3 μM is indicated by four stars (****)) |
| Cc1cn2nc(-c3cc(=O)n4cc(C5=CCNCC5)ccc4n3)cc2cn1 [Compound 473, 2-(6-methylpyrazolo[1,5-a]pyrazin-2-yl)-7-(1,2,3,6-tetrahydropyridin-4-yl)-4H-pyrido[1,2-a]pyrimidin-4-one] | < 0.1 | 260 to 265 | ***** (a fold increase >1.65 is indicated by five stars (*****)) | **** (an EC1.5x≤0.3 μM is indicated by four stars (****)) |
